Laboratory results taken from US20260085073A1, “PYRAZOLYLCARBOXAMIDE COMPOUNDS AND THEIR USE IN THERAPY” (Hotspot Therapeutics, Inc., priority 2022, published 2026).

Biological target: T1, MALT1 (Homo sapiens, UniProt Q9UDY8)
T1 construct: Avi-tagged FL MALT-1 (Pharmaron, stored at −70° C.); Avi-tag
T1 sequence (Q9UDY8 1-824): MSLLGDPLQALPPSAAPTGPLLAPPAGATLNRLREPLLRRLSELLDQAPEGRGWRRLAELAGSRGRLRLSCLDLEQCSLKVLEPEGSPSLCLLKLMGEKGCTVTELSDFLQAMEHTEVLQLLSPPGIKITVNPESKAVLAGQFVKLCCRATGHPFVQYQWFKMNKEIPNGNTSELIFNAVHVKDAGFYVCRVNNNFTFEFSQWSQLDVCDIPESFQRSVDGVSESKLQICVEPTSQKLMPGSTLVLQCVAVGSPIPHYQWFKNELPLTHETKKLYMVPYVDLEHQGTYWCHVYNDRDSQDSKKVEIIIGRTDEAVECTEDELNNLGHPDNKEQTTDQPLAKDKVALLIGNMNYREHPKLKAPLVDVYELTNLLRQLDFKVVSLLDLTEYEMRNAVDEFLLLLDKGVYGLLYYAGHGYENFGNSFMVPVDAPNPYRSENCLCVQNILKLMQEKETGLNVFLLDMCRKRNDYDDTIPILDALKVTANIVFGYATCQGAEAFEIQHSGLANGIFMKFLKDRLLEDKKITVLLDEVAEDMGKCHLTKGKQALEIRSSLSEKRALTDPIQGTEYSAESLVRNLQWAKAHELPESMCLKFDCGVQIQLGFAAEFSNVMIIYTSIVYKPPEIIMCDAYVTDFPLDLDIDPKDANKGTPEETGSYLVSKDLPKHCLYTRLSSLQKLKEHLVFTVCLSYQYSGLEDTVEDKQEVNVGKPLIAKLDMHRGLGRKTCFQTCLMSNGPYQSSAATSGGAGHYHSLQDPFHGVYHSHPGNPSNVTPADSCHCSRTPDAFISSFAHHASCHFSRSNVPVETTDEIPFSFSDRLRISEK
Test: MALT1 inhibition assay (MALT-1 Fluorogenic Peptide Cleavage Assay, Ac-LRSR-AMC substrate)
Format: biochemical
Details: Avi-tagged FL MALT-1, 30 min pre-incubation, 90 min reaction at room temperature, fluorescence intensity
Experimental: Example 71—MALT1 Inhibition Assay
Compounds were tested for ability to bind to MALT1.
Inhibition of MALT1 activity by the presence of small molecules was evaluated using MALT-1 Fluorogenic Peptide Cleavage Assay. The assay utilizes a quenched AMC-labelled peptide that contains the MALT-1 recognition sequence and cleavage site (LRSR). MALT-1 mediated cleavage of the peptide relieves the quenching and leads to an increase in fluorescence at excitation (342 nm) and emission (441 nm).
The following reagents were obtained commercially and used to prepare standard reagent formulations as further described below: N-2-hydroxyethylpiperazine-N-2-ethane sulfonic acid (HEPES) (1 M, pH 7.5, stored at 4° C.), sodium citrate (stored at RT), tris(2-carboxyethyl) phosphine hydrochloride (T-CEP) (500 mM, stored at −20° C.), ethylenediaminetetraacetic acid (EDTA) (500 mM, stored at RT), dimethylsulfoxide (DMSO, stored at RT), 3-[(3-cholamidopropyl)dimethylammonio]-1-propane sulphate (CHAPS) (stored at RT), dimethylsulfoxide (DMSO), DMSO (Fisher Scientific, stored at RT), Avi-tagged FL MALT-1 (Pharmaron, stored at −70° C.), Ac-LRSR-AMC Peptide (SM Biochemicals, stored at −20° C.), and ultrapure water (MILLI-QR).
The standard reagent formulations used in this assay were prepared and stored as follows. A 1.1 M solution of sodium citrate (161.3 g, 500 mL) was prepared and stored at room temperature. A 10% (w/v) CHAPS solution (2.0 g, 20 mL) was prepared and stored at 4° C. A 500 mM HEPES solution having pH of 6.89 was prepared from 200 mL of a 1 M HEPES solution having a pH of 7.5 using concentrated hydrochloric acid and brought to a final volume of 400 mL with MILLI-QR H2O. The substrate, 10 mM Ac-LRSR-AMC Peptide, was prepared (10 mg, 1.370 mL DMSO) and stored at −20° C.
Compounds were plated to provide a 2% DMSO final concentration using a ProxiPlate-384 Plus F Black 384-shallow well microplate. The assay-ready plates were equilibrated to room temperature. A reaction buffer (30 mL total volume) was prepared by combining HEPES (pH 6.89, 25 mM, 1.5 mL), sodium citrate (660 mM, 18.0 mL), T-CEP (1 mM, 0.06 mL), EDTA ([…], 0.06 mL), CHAPS (0.05%, 0.15 mL), DMSO (2%, 0.6 mL), and MILLI-QR H2O (10.23 mL; 9.63 mL when backfilled to 2% DMSO) followed by thorough mixing. DMSO was added only when compound plates had not been DMSO-backfilled to 2%.
MALT-1 was thawed and kept on ice. Peptide substrate was thawed on the bench under ambient conditions. A MALT-1 enzyme working stock was prepared from Avi-tagged FL MALT-1 (40 nM in a prepared reagent volume of 16.5 μL) and the reaction buffer (13.0 mL). MALT1 working stock (5 μL) was added to each well of the microplate. MALT-1 was pre-incubated with compounds for 30 minutes at room temperature.
Two substrate working stocks (Km and 10×Km) were prepared. The 1×Km substrate was prepared from Ac-LRSR-AMC Peptide (50 μM in a prepared reagent volume of 35.0 μL) and the reaction buffer (6.965 mL). The 10×Km substrate was prepared from Ac-LRSR-AMC Peptide (280 μM in a prepared reagent volume of 196.0 μL) and the reaction buffer (6.804 mL). The reaction was initiated by the addition of substrate working stock (5 μL, 50 μM) to Km plates and the addition of substrate working stock (5 μL 280 μM) to 10×Km plates. The plates were covered and incubated on the bench at room temperature for 90 minutes.
Fluorescence intensity was determined using a CLARIOstar microplate reader (BMG LABTECH) using the optimised AMC mode. Before taking readings, a 70% gain was applied on the neutral control well. Compound data were normalised to % Inhibition and used to plot sigmoidal concentration response curves to yield various parameters including IC50.

| SMILES | IC50 [µM] |
| --- | --- |
| Cn1nc(-c2cccc3c2OCO3)c(C(F)(F)F)c1C(=O)Nc1cnc(-n2nccn2)c(C#N)c1 [Compound I-43] | < 0.5 |
| Cn1nc(-c2cccc3c2OCCO3)c(C(F)(F)F)c1C(=O)Nc1ccnc(C(F)(F)F)c1 [Compound I-44] | 0.5 to 2.5 |
| Cn1nc(-c2ccc(F)cc2Cl)c(C(F)(F)F)c1C(=O)Nc1ccnc(C(F)(F)F)c1 [Compound I-45] | < 0.5 |
| Cn1nc(-c2cccc3[nH]ncc23)c(C(F)(F)F)c1C(=O)Nc1ccnc(C(F)(F)F)c1 [Compound I-46] | 0.5 to 2.5 |
| Cn1nc(-c2cccc3occc23)c(C(F)(F)F)c1C(=O)Nc1ccnc(C(F)(F)F)c1 [Compound I-47] | < 0.5 |
| Cn1nc(-c2cccn(C)c2=O)c(C(F)(F)F)c1C(=O)Nc1ccnc(C(F)(F)F)c1 [Compound I-48] | > 10 |
| Cn1nc(-c2c(Cl)ccc3c2OCO3)c(C(F)(F)F)c1C(=O)Nc1ccnc(C(F)(F)F)c1 [Compound I-49] | < 0.5 |
| Cn1nc(-c2ccc(F)c3c2OCO3)c(C(F)(F)F)c1C(=O)Nc1ccnc(C(F)(F)F)c1 [Compound I-50] | < 0.5 |
| Cn1nc(-c2cccc3c2OCCN3)c(C(F)(F)F)c1C(=O)Nc1ccnc(C(F)(F)F)c1 [Compound I-51] | > 10 |
| COc1cccc(-c2nn(C)c(C(=O)Nc3ccnc(C(F)(F)F)c3)c2C(F)(F)F)c1OC [Compound I-52] | 0.5 to 2.5 |
| Cn1nc(-c2cccc3c2NCCO3)c(C(F)(F)F)c1C(=O)Nc1ccnc(C(F)(F)F)c1 [Compound I-54] | 0.5 to 2.5 |
| Cc1ccc2ncccc2c1-c1nn(C)c(C(=O)Nc2ccnc(C(F)(F)F)c2)c1C(F)(F)F [Compound I-55] | 0.5 to 2.5 |
| Cn1nc(-c2cccc3c2ccn3C)c(C(F)(F)F)c1C(=O)Nc1ccnc(C(F)(F)F)c1 [Compound I-56] | 0.5 to 2.5 |
| Cn1nc(-c2cccc3c2ccn3CC(=O)O)c(C(F)(F)F)c1C(=O)Nc1ccnc(C(F)(F)F)c1 [Compound I-57] | > 10 |
| Cn1nc(-c2cccc3ncccc23)c(C(F)(F)F)c1C(=O)Nc1cnc(-n2nccn2)c(Cl)c1 [Compound I-58] | < 0.5 |
| Cn1nc(-c2ccccc2Cl)c(C(F)(F)F)c1C(=O)Nc1ccnc(C(F)(F)F)c1 [Compound I-59] | < 0.5 |
| Cn1nc(-c2cccc3ncsc23)c(C(F)(F)F)c1C(=O)Nc1ccnc(C(F)(F)F)c1 [Compound I-60] | < 0.5 |
| Cn1nc(-c2cccc3cnn(C)c23)c(C(F)(F)F)c1C(=O)Nc1ccnc(C(F)(F)F)c1 [Compound I-61] | 0.5 to 2.5 |
| Cn1cc2c(-c3nn(C)c(C(=O)Nc4ccnc(C(F)(F)F)c4)c3C(F)(F)F)cccc2n1 [Compound I-62] | 2.5 to 10 |
| Cn1nc(-c2cccc3c(=O)[nH]ccc23)c(C(F)(F)F)c1C(=O)Nc1ccnc(C(F)(F)F)c1 [Compound I-63] | < 0.5 |
| Cn1nc(-c2cccn3ncnc23)c(C(F)(F)F)c1C(=O)Nc1ccnc(C(F)(F)F)c1 [Compound I-64] | 0.5 to 2.5 |
| Cn1nc(-c2cccc3c2CNC3=O)c(C(F)(F)F)c1C(=O)Nc1ccnc(C(F)(F)F)c1 [Compound I-65] | < 0.5 |

| SMILES | IC50 [µM] |
| --- | --- |
| Cn1nc(-c2ccnc3ccsc23)c(C(F)(F)F)c1C(=O)Nc1ccnc(C(F)(F)F)c1 [Compound I-66] | 0.5 to 2.5 |
| Cn1nc(-c2cccc3cnsc23)c(C(F)(F)F)c1C(=O)Nc1ccnc(C(F)(F)F)c1 [Compound I-67] | > 10 |
| COc1cccc(-c2nn(C)c(C(=O)Nc3ccnc(C(F)(F)F)c3)c2C(F)(F)F)c1Cl [Compound I-68] | 0.5 to 2.5 |
| Cn1nc(-c2cnn3ccccc23)c(C(F)(F)F)c1C(=O)Nc1ccnc(C(F)(F)F)c1 [Compound I-69] | 2.5 to 10 |
| Cn1nc(-c2cncc(C#N)c2)c(C(F)(F)F)c1C(=O)Nc1ccnc(C(F)(F)F)c1 [Compound I-70] | > 10 |
| Cn1nc(-c2cnc3n2CCOC3)c(C(F)(F)F)c1C(=O)Nc1ccnc(C(F)(F)F)c1 [Compound I-71] | > 10 |
| Cn1nc(-c2ccnc3c2OCO3)c(C(F)(F)F)c1C(=O)Nc1ccnc(C(F)(F)F)c1 [Compound I-72] | 0.5 to 2.5 |
| Cn1nc(-c2csc3ccncc23)c(C(F)(F)F)c1C(=O)Nc1ccnc(C(F)(F)F)c1 [Compound I-73] | 0.5 to 2.5 |
| Cn1nc(-c2cnn3ccncc23)c(C(F)(F)F)c1C(=O)Nc1ccnc(C(F)(F)F)c1 [Compound I-74] | > 10 |
| Cn1nc(-c2cc(O)ccc2Cl)c(C(F)(F)F)c1C(=O)Nc1ccnc(C(F)(F)F)c1 [Compound I-75] | 0.5 to 2.5 |
| CN(C)c1cc(-c2nn(C)c(C(=O)Nc3ccnc(C(F)(F)F)c3)c2C(F)(F)F)ccn1 [Compound I-76] | > 10 |
| Cn1nc(-c2cnc(N)c3ccccc23)c(C(F)(F)F)c1C(=O)Nc1ccnc(C(F)(F)F)c1 [Compound I-77] | 0.5 to 2.5 |
| Cn1nc(-c2cccc3c(N)nccc23)c(C(F)(F)F)c1C(=O)Nc1ccnc(C(F)(F)F)c1 [Compound I-78] | > 10 |
| Cc1ncccc1-c1nn(C)c(C(=O)Nc2ccnc(C(F)(F)F)c2)c1C(F)(F)F [Compound I-79] | 2.5 to 10 |
| Cc1cncc(-c2nn(C)c(C(=O)Nc3ccnc(C(F)(F)F)c3)c2C(F)(F)F)c1 [Compound I-80] | > 10 |
| Cn1nc(-c2cncc(F)c2)c(C(F)(F)F)c1C(=O)Nc1ccnc(C(F)(F)F)c1 [Compound I-81] | 2.5 to 10 |
| Cn1nc(-c2cccc(S(C)(=O)=O)c2)c(C(F)(F)F)c1C(=O)Nc1ccnc(C(F)(F)F)c1 [Compound I-82] | 2.5 to 10 |
| Cn1nc(-c2ccc(F)nc2F)c(C(F)(F)F)c1C(=O)Nc1ccnc(C(F)(F)F)c1 [Compound I-83] | 2.5 to 10 |
| Cc1coc2c(-c3nn(C)c(C(=O)Nc4ccnc(C(F)(F)F)c4)c3C(F)(F)F)cccc12 [Compound I-84] | 0.5 to 2.5 |
| Cn1nc(N2CCCc3ccccc32)c(C(F)(F)F)c1C(=O)Nc1ccnc(C(F)(F)F)c1 [Compound I-85, 3-(3,4-dihydroquinolin-1 (2H)-yl)-1-methyl-4-(trifluoromethyl)-N-(2-(trifluoromethyl)pyridin-4-yl)-1H-pyrazole-5-carboxamide] | 0.5 to 2.5 |
| Cn1nc(Nc2ccccc2)c(C(F)(F)F)c1C(=O)Nc1cnc(-n2nccn2)c(Cl)c1 [Compound I-86] | < 0.5 |
